The values below come from patent US20100104980A1, “LITHOGRAPHIC PRINTING PLATE PRECURSOR” (Agfa Graphics NV, priority 2007, published 2010).

Data set [1] in a line: Solubility in methylethylketone (MEK) measured at 20° C. It is filed as physicochemical. Here is the method:
The symmetric sensitizers SS-01 to SS-06 are given in Table 1 together with their solubility in methylethylketone (S (MEK)) measured at 20° C.

The nature of data set [2]: Solubility in 1-methoxy-2-propanol (MOP) at 80° C., Lasentec FBRM technology. It counts as physicochemical. Conditions: solubility in 1-methoxy-2-propanol at 80° C.; from curve fitting of experimental data. Here is the method: (§1) In the present application the MetaStable Zone of solutions of a sensitizer and/or a mixture of sensitizers were measured with Lasentec® FBRM® technology, from Mettler Toledo. In this experimental set up, a Lasentec® Probe is used in an automated Labmax® 2 litre reactor, both from Mettler Toledo. In a typical investigation, the solution is cooled at a controlled rate (° C./min.) At a certain temperature, the probe detects nucleation and holds the solution at that temperature as crystallization proceeds. After completion of the crystallization, the solution is subjected to a controlled heating (° C./min) until the probe detects the temperature at which dissolution of the crystals is nearly completed. Again, the solution is kept at that temperature until all crystals are dissolved. Such cooling and heating cycli are performed for different concentrations of the solution. All actions, i.e. performing the cooling and heating cycli, dilution of the solution, storage and analysis of the data are performed automatically by the experimental set up used.
(§2) All investigations were performed on a sensitizer solution in 1-methoxy-2-propanol, since this typical coating solvent has a high boiling point (120° C.) and, as described above, will probably determine the crystallization behaviour at the end of the drying step of the photopolymerizable coating.
(§3) The obtained data for each investigated solution of a sensitizer or a mixture of sensitizers may be represented as in FIG. 1. In FIG. 1, curve S is the solubility curve and curve N the nucleation curve. These curves border three regions characterizing the solution as a function of concentration and temperature: the UnSaturated Zone (USZ), a stable zone wherein the solution is unsaturated (sensitizer is completely dissolved); an Unstable Zone (UZ), wherein crystallization occurs; and a MetaStable Zone (MSZ) wherein the solution is supersaturated but wherein no crystallization occurs.
(§4) The suspension was stirred at 350 rpm and heated until complete dissolution of all sensitizers. All following actions were automatically performed by the experimental set up used. The experimental set up constituted a Labmax® 2 liter automated lab reactor equipped with Lasentec® Probe and the Lasentec® D600 hardware, all distributed by Mettler Toledo. The Lasentec® FBRM® technology enables the detection of nucleation and dissolution temperatures of a solution. FBRM® stands for Focused Beam Reflectance Measurement. The Lasentec® probe measures the number and the average diameter of the particles in the suspension (the laser of the Lasentec® probe continuously scans, with a linear scan speed of 2 m/s, a region of the suspension; the laser light is reflected by the particles residing in the scanned region).
The 40 percent by weight solution was cooled at 0.2° C./minute. Upon detection of nucleation, i.e. when the Lasentec® FBRM® technology detects more than 800 particles with an average diameter of 1 to 20 μm, the so called ‘fines’ region, the mixture was kept at the attained temperature during 0.5 hour as crystallization proceeds. Upon completion of the crystallization, the mixture was heated at 0.2° C./minute. Upon detection of solubilization, i.e. when the Lasentec® FBRM® technology detects less than 30 particles with an average particle diameter of 20 to 50 μm, the so called ‘coarses’ region, the temperature was kept at the attained temperature during 0.5 hour until completion of the solubilization. […]

A short description of data set [3]: MetaStable Zone Width (MSZW) in 1-methoxy-2-propanol at 80° C., Lasentec FBRM technology. It is filed as physicochemical. Conditions: cooling and heating rate 0.2° C./min, from curve fitting. As for the experimental part:
as §1, §2, §3
The MetaStable Zone Width (MSZW), expressed in ° C., at a given temperature, is the width of the Metastable Zone (MSZ) starting at the curve S at that given temperature. Since the MSZW is dependent on the cooling and heating rates, these rates were identical for all solutions investigated, i.e. 0.2° C./min. If the cooling rate would be indefinitely slow, the nucleation curve would practically coincide with the solubility curve and no MetaStable Zone would be detected.
as §4
The 40 percent by weight solution was cooled at 0.2° C./minute. […]

As to `COc1cc(/C=C/c2ccc(/C=C/c3cc(OC)c(OC(C)C)c(OC)c3)cc2)cc(OC)c1OC(C)C` [SS-03], in data set [1], the “S (MEK)” value was 0.45 wt %. For the same compound, the “S (MOP) 80° C.” value in data set [2] was 7.31 wt. %. Further, the “MSZW 80° C.” value in data set [3] came to 1.7 °C. For `CCCCC(CC)COc1c(OC)cc(/C=C/c2ccc(/C=C/c3cc(OC)c(OC(C)CC)c(OC)c3)cc2)cc1OC` (stereo not drawn) [AS-01], the melting point (as a rule, the temperature of the solid-liquid transition) is 81 °C. Same read-out and setting: in the case of `CCC(C)Oc1c(OC)cc(/C=C/c2ccc(/C=C/c3cc(OC)c(OC(CC)CC)c(OC)c3)cc2)cc1OC` (stereo not drawn) [AS-02] it was 155 °C. Regarding `CCCOc1c(OC)cc(/C=C/c2ccc(/C=C/c3cc(OC)c(OCCC)c(OC)c3)cc2)cc1OC` [SS-02], in data set [1], the “S (MEK)” value turned out to be 4.75 wt %. Further, the “S (MOP) 80° C.” value in data set [2] is reported as 10.78 wt. %. For the same compound, the “MSZW 80° C.” value in data set [3] is 4.5 °C. The matching figures for `COc1cc(/C=C/c2ccc(/C=C/c3cc(OC)c(OC)c(OC)c3)cc2)cc(OC)c1OC` [SS-01]: 0.89 wt %, 4.66 wt. % and 4.5 °C. The matching figures for `CCC(C)Oc1c(OC)cc(/C=C/c2ccc(/C=C/c3cc(OC)c(OC(C)CC)c(OC)c3)cc2)cc1OC` (stereo not drawn) [SS-04]: 8.71 wt %, 22.76 wt. % and 1.6 °C. Take `CCCCC(CC)COc1c(OC)cc(/C=C/c2ccc(/C=C/c3cc(OC)c(OCC(CC)CCCC)c(OC)c3)cc2)cc1OC` (stereo not drawn) [SS-06]: the “S (MEK)” value in data set [1] was determined as 23.21 wt %. `CCC(C)Oc1c(OC)cc(/C=C/c2ccc(/C=C/c3cc(OC)c(OC4CCCCC4)c(OC)c3)cc2)cc1OC` (stereo not drawn) [AS-03] registered a melting point of 165 °C. On to `CCC(C)Oc1c(OC)cc(/C=C/c2ccc(/C=C/c3cc(OC)c(OCCO)c(OC)c3)cc2)cc1OC` (stereo not drawn) [AS-05], for which the melting point came out at 137 °C. Turning to `CCC(CC)Oc1c(OC)cc(/C=C/c2ccc(/C=C/c3cc(OC)c(OC(CC)CC)c(OC)c3)cc2)cc1OC` [SS-05], in data set [1], the “S (MEK)” value is on record as 9.64 wt %. Moreover, the “S (MOP) 80° C.” value in data set [2] is recorded as 6.14 wt. %. Moreover, in data set [3], the “MSZW 80° C.” value came out at 3.6 °C. In the case of `CCC(C)Oc1c(OC)cc(/C=C/c2ccc(/C=C/c3cc(OC)c(OC4CCCC4)c(OC)c3)cc2)cc1OC` (stereo not drawn) [AS-04], the melting point amounted to 153 °C.
